Measurements published in paper PMC3083694, “Effects of Intermediates between Vitamins K2 and K3 on Mammalian DNA Polymerase Inhibition and Anti-Inflammatory Activity” (International Journal of Molecular Sciences, 2011).

Key:
[1] = target: T1, Human DNA polymerase γ (Homo sapiens, UniProt P54098); experiment: DNA polymerase activity assay, human pol γ; format: biochemical
T1 construct: made in house
T1 sequence (P54098 1-1239): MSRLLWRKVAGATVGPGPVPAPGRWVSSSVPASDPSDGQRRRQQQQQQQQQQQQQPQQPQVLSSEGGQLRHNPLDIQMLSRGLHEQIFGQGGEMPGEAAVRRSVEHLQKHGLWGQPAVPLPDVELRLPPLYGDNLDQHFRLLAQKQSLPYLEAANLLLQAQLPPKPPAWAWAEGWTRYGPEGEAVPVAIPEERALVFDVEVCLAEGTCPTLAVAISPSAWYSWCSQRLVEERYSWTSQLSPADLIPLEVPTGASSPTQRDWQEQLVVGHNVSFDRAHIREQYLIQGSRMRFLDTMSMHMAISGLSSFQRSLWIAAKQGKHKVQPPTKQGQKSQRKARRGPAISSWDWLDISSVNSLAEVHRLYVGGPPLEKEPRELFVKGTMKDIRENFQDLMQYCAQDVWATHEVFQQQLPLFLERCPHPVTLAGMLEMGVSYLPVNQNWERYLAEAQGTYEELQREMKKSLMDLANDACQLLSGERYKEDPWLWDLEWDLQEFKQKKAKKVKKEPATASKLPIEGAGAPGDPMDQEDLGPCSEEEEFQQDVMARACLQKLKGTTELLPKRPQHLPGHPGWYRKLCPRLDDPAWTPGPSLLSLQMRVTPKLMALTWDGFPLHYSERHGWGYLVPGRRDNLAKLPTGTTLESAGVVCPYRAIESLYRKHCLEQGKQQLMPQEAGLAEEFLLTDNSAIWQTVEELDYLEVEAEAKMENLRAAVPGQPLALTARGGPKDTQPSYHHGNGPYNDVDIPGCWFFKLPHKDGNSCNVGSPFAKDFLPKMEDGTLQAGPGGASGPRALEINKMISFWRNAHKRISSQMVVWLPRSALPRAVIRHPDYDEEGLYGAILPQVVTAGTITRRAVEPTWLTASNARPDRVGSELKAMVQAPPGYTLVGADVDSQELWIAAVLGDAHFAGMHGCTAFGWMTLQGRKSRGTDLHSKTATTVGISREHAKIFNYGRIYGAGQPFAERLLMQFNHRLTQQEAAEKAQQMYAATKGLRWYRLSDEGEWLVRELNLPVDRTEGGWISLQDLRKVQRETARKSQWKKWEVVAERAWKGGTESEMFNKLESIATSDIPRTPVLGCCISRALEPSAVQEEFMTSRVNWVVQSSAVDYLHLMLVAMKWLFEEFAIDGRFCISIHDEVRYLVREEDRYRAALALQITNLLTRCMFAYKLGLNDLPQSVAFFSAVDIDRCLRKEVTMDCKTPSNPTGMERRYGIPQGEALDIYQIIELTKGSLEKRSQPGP
Experimental: (§1) Pols from mammals, a fish (cherry salmon), an insect (fruit fly) and a plant (cauliflower) were purified, and prokaryotic pols and other DNA metabolic enzymes, such as T7 RNA polymerase, T4 polynucleotide kinase and bovine deoxyribonuclease I, were purchased as described in our previous report. The activities of all pols and other DNA metabolic enzymes were measured as described in previous reports.
The components of the pol assay were poly(dA)/oligo(dT)18 and dTTP as the DNA template-primer and 2′-deoxyribonucleoside 5′-triphosphate (dNTP) substrate, respectively. VK2, VK3, and their synthesized derivatives (i.e., MK-3, MK-2 and MK-1) were dissolved in dimethyl sulfoxide (DMSO) at various concentrations and sonicated for 30 s. The sonicated samples (4 μL) were mixed with 16 μL of each pol enzyme (final amount, 0.05 units) in 50 mM Tris-HCl (pH 7.5) containing 1 mM dithiothreitol, 50% glycerol and 0.1 mM EDTA, and kept at 0 °C for 10 min. These inhibitor–enzyme mixtures (8 μL) were added to 16 μL of each standard enzyme reaction mixture (50 mM Tris-HCl [pH 7.5], 1 mM dithiothreitol, 1 mM MgCl2, 15% glycerol, 10 μM poly(dA)/oligo(dT)18 and 10 μM [^3H]-dTTP), and incubation was carried out at 37 °C for 60 min, except for Taq pol, which was incubated at 74 °C for 60 min. Activity without the inhibitor was considered to be 100%, and the activity remaining at each concentration of inhibitor was determined relative to this value. One unit of pol activity was defined as the amount of enzyme that catalyzed the incorporation of 1 nmol dNTP (dTTP) into the synthetic DNA template-primer (poly(dA)/oligo(dT)18, A/T = 2/1) in 60 min at 37 °C under normal reaction conditions for each enzyme (scintillation counts: approximately 1 pmol of incorporated radioactive nucleotides = 100 cpm).

[2] = target: T2, Human DNA polymerase δ (Homo sapiens, UniProt P28340); experiment: DNA polymerase activity assay, human pol δ; format: biochemical; details: B-family pol; read-out: IC50 Value of MK-2, Human DNA polymerase δ
T2 construct: made in house
Experimental: as §1
(§2) The components of the pol assay were poly(dA)/oligo(dT)18 and dTTP as the DNA template-primer and 2′-deoxyribonucleoside 5′-triphosphate (dNTP) substrate, respectively. VK2, VK3, and their synthesized derivatives (i.e., MK-3, MK-2 and MK-1) were dissolved in dimethyl sulfoxide (DMSO) at various concentrations and sonicated for 30 s. The sonicated samples (4 μL) were mixed with 16 μL of each pol enzyme (final amount, 0.05 units) in 50 mM Tris-HCl (pH 7.5) containing 1 mM dithiothreitol, 50% glycerol and 0.1 mM EDTA, and kept at 0 °C for 10 min. […] Activity without the inhibitor was considered to be 100%, and the activity remaining at each concentration of inhibitor was determined relative to this value. […]

[3] = target: T3, Rat DNA polymerase β (Rattus norvegicus, UniProt P06766); experiment: DNA polymerase activity assay, rat pol β; format: biochemical; details: X-family pol; read-out: IC50 Value of MK-2, Rat DNA polymerase β
T3 construct: made in house
Experimental: as §1, §2

[4] = target: Calf Terminal deoxynucleotidyl transferase (Bos taurus, UniProt P06526); experiment: DNA polymerase activity assay, calf TdT; format: biochemical; details: X-family pol; read-out: IC50 Value of MK-2, Calf Terminal deoxynucleotidyl transferase
Experimental: as §1, §2

[5] = target: T4, Fruit fly DNA polymerase α (Drosophila melanogaster, UniProt P26019); experiment: DNA polymerase activity assay, fruit fly pol α; format: biochemical; details: insect pol; read-out: IC50 Value of MK-2, Fruit fly DNA polymerase α
T4 construct: made in house
Experimental: as §1, §2

[6] = target: T5, Fruit fly DNA polymerase ɛ (Drosophila melanogaster, UniProt Q9VCN1); experiment: DNA polymerase activity assay, fruit fly pol ɛ; format: biochemical; details: insect pol; read-out: IC50 Value of MK-2, Fruit fly DNA polymerase ɛ
T5 construct: made in house
Experimental: as §1, §2

[7] = target: T6, E. coli DNA polymerase I (Escherichia coli, UniProt P00582); experiment: DNA polymerase activity assay, E. coli pol I; format: biochemical; details: prokaryotic pol; read-out: IC50 Value of MK-2, E. coli DNA polymerase I
T6 construct: purchased
Experimental: as §1, §2

[8] = target: T7, T7 RNA polymerase (Escherichia phage T7, UniProt P00573); experiment: DNA metabolic enzyme assay, T7 RNA polymerase; format: biochemical; details: other DNA metabolic enzyme; read-out: IC50 Value of MK-2, T7 RNA polymerase
T7 construct: purchased
Experimental: as §1

[9] = target: T8, T4 polynucleotide kinase (Enterobacteria phage T4, UniProt P06855); experiment: DNA metabolic enzyme assay, T4 polynucleotide kinase; format: biochemical; details: other DNA metabolic enzyme; read-out: IC50 Value of MK-2, T4 polynucleotide kinase
T8 construct: purchased
Experimental: as §1

[10] = target: B-family pols (mammalian); experiment: DNA polymerase activity assay, mammalian B-family pols; format: biochemical, mammals; details: range over mammalian B-family pols α, δ, ɛ; read-out: 50% inhibition of the B family of pols
Experimental: as §1, §2

[11] = target: Y-family pols (mammalian); experiment: DNA polymerase activity assay, mammalian Y-family pols; format: biochemical, mammals; details: range over mammalian Y-family pols η, ι, κ; read-out: 50% inhibition of the Y family of pols
Experimental: as §1, §2

T5 sequence (Q9VCN1 whole entry): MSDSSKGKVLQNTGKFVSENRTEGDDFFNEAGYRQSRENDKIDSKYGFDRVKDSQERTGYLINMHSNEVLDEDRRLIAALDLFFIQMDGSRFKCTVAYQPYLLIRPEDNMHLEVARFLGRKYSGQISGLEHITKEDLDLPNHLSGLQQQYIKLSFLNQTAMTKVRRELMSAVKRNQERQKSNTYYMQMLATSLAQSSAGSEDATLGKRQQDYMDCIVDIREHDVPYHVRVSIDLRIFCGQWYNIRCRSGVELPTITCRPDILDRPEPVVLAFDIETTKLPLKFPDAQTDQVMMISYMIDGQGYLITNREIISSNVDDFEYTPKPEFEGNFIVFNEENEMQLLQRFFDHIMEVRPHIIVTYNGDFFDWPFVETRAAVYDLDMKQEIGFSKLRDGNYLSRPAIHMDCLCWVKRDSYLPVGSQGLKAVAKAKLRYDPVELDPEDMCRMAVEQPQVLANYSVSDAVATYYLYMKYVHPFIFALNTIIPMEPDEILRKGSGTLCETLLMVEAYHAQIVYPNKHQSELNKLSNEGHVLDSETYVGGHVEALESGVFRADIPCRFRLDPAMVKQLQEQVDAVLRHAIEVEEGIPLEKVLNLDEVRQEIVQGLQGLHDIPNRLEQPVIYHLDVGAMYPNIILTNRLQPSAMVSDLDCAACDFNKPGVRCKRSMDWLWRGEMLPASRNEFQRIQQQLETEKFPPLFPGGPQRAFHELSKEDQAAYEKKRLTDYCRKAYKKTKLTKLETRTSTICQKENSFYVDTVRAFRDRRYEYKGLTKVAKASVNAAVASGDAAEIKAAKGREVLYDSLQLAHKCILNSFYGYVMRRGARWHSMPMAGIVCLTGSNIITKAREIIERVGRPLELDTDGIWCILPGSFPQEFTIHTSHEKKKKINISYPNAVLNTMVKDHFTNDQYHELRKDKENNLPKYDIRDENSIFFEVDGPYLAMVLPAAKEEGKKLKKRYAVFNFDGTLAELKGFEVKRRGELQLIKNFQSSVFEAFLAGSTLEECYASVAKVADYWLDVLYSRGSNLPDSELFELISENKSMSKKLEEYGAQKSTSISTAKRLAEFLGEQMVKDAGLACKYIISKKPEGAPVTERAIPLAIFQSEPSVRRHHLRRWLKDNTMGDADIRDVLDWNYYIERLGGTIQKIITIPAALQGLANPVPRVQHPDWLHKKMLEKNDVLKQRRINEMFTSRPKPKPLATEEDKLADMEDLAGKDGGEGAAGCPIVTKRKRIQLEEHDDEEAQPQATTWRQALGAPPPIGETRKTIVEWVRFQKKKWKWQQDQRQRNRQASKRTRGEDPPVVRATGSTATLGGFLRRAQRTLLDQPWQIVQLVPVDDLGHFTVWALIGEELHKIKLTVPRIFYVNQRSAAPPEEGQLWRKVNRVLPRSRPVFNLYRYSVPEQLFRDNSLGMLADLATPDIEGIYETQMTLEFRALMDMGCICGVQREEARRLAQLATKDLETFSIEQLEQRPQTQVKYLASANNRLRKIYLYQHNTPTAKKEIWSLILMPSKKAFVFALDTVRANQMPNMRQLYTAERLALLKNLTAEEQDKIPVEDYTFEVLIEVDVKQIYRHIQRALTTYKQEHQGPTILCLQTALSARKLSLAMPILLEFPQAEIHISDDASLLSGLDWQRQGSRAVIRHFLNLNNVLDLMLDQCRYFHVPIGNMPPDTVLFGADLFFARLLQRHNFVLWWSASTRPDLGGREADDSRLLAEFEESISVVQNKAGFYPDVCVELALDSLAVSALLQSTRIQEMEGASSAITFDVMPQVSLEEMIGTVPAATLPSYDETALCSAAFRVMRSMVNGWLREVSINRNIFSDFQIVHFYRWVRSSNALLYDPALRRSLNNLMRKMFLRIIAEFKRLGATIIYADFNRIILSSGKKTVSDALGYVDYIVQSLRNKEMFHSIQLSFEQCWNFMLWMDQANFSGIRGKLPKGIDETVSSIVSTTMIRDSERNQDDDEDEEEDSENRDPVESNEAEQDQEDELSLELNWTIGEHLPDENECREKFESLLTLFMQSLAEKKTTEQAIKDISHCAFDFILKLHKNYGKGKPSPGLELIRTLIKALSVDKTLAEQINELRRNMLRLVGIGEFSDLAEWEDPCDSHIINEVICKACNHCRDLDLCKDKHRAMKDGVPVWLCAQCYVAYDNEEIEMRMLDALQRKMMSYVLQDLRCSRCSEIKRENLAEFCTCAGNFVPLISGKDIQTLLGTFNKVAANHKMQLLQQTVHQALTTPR
Chain of Calf Terminal deoxynucleotidyl transferase (P06526 whole entry): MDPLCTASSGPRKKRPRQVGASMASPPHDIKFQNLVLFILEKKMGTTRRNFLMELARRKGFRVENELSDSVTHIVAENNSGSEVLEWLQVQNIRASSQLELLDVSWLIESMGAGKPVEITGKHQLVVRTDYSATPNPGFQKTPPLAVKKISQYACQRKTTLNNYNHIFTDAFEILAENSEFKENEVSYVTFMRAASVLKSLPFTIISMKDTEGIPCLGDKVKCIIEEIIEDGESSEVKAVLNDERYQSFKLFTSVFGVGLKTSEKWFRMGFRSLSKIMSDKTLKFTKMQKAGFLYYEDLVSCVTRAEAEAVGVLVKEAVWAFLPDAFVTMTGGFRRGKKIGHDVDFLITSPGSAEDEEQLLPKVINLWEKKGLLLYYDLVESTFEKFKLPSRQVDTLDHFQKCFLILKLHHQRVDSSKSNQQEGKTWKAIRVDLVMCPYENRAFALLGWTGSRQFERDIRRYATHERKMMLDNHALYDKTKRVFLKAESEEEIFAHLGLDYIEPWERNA
T6 sequence (P00582 324-928): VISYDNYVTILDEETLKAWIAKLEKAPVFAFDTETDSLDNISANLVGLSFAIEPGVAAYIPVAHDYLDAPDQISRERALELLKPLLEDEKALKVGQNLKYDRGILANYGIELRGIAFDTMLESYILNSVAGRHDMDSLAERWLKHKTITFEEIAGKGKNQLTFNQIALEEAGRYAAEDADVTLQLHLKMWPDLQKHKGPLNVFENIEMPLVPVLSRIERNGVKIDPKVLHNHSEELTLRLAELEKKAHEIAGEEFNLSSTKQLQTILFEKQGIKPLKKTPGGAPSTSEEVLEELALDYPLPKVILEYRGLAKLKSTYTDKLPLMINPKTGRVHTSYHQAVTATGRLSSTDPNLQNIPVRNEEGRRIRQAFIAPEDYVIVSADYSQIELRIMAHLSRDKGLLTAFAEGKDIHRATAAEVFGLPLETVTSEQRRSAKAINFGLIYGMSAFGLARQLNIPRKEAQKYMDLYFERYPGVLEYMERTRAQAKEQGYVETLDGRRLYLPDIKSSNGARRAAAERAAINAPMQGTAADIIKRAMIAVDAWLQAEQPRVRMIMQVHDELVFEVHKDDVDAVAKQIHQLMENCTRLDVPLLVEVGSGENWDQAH
T7 sequence (P00573 whole entry): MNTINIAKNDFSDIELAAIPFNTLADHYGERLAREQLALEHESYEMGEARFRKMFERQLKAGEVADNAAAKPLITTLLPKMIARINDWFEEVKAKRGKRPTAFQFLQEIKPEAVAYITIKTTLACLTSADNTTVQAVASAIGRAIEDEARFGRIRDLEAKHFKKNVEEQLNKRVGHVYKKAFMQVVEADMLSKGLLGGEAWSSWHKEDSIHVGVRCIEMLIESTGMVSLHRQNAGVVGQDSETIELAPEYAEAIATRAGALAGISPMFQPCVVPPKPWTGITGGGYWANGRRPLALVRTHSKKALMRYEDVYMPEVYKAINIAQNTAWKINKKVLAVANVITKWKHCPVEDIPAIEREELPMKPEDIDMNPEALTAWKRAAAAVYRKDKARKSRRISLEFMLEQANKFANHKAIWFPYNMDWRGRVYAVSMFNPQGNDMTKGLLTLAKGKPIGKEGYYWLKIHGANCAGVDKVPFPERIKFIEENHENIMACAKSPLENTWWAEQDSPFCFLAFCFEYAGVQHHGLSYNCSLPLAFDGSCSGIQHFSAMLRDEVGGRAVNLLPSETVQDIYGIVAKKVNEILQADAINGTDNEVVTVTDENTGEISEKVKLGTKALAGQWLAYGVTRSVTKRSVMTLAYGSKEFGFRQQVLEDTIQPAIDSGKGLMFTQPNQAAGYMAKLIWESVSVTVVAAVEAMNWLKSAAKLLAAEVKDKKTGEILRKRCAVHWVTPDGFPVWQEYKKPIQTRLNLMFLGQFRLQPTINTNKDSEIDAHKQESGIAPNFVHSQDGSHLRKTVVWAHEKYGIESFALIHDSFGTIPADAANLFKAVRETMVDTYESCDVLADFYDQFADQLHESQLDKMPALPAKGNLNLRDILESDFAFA
T8 sequence (P06855 whole entry): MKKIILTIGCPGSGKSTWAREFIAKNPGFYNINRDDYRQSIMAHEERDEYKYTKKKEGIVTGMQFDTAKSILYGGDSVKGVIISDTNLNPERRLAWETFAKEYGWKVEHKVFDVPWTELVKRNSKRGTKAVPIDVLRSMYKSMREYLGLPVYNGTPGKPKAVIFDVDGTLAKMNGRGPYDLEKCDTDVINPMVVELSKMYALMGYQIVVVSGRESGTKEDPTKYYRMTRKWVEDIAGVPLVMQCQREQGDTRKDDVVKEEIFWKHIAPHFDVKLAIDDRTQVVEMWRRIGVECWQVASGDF

For `CC(C)=CCC/C(C)=C/CC/C(C)=C/CC/C(C)=C/CC1=C(C)C(=O)c2ccccc2C1=O` [MK-4, menaquinone 4, reference compound], the “Inhibitory effect on human pol γ activity” value ([1]; 50 μM of each compound, Figure 2) was “had no effect on pol activity”.
In the case of `CC(C)=CCC/C(C)=C/CC1=C(C)C(=O)c2ccccc2C1=O` [MK-2], the IC50 ([1]; A-family pol, poly(dA)/oligo(dT)18 and dTTP, read-out: IC50 Value of MK-2, Human DNA polymerase γ) is reported as 68.8 ± 3.4 µM, the IC50 [2] is reported as 29.1 ± 1.8 µM and the IC50 [3] is reported as 31 ± 1.8 µM. The IC50 [4] was 29.4 ± 1.7 µM, the IC50 [5] was 34 ± 2 µM and the IC50 [6] was 36.7 ± 2.1 µM. The IC50 [7] was > 200 µM, the IC50 [8] was > 200 µM and the IC50 [9] was > 200 µM. It also gave an IC50 [10] of 27.6 to 29.1 µM and an IC50 [11] of 35.3 to 39 µM.
